Values quoted from earlier work as cited in US6399592B1, “Bishphosphonate/estrogen synergistic therapy for treating and preventing bone loss” (Merck & Co., Inc., priority 1992, dated 2002).

Key:
bone mineralization = settings: rats; long term
[1] = system: bone loss in ovaricetomized rats; settings: in combination with estrogen

Row | Structure (SMILES) | effects on bone mineralization (bone mineralization) | effect on bone loss [1]
1 | CC(O)(P(=O)([O-])O)P(=O)([O-])O.[Na+].[Na+] [etidronate, (1-hydroxyethylidene)bisphosphonic acid, disodium salt] | long term adverse effects on bone mineralization | –
2 | O=P([O-])(O)C(O)(Cc1cccnc1)P(=O)(O)O.[Na+] [risendronate, sodium trihydrogen [1-hydroxy-2-(3-pyridinyl)ethylidene]bisphosphonate] | – | positive effect on bone loss
